Reference: US9701670B2, “Pyrazolyl-ureas as kinase inhibitors” (RESPIVERT LIMITED, priority 2013, dated 2017)

What was measured:
[1] = biological target: p38 MAPKα isoform (MAPK14) (Homo sapiens (Human), UniProt Q16539); test: p38 MAPKα enzyme inhibition (FRET, Z-LYTE), Method 1; format: biochemical; conditions: Method 1 (Table 4a1)
[2] = tested on: Differentiated U937 cells; test: (l) Cell viability: MTT assay; format: cell-based, human; conditions: 1 μg/mL
Method in brief: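 MTT read-out (1 h, absorbance 550 nm) on d-U937 cells after pre-incubation with 1 or 10 μg/mL compound under two regimes: 4 h, 5% FCS, or 24 h, 10% FCS RPMI1640. Values are percent loss of viability relative to vehicle (0.5% DMSO), so increases are reported as negative.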

Chain of p38 MAPKα isoform (MAPK14) (Q16539 whole entry, canonical isoform): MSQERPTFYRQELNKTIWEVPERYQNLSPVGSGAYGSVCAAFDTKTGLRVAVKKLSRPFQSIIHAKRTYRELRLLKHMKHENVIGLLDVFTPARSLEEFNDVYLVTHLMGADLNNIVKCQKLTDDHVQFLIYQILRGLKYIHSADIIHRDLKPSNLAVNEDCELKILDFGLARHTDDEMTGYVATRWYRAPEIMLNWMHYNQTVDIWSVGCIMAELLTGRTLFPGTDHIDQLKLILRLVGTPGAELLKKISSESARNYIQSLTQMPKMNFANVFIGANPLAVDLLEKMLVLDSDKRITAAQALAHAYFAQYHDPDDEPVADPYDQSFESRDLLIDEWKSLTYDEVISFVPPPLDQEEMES

SMILES | IC50 [1] [nM] | Cell viability at time point in d-U937 cells 4 h [2] | Cell viability at time point in d-U937 cells 24 h [2]
COc1ccc(-n2nc(C(C)C)cc2NC(=O)Nc2ccc(Oc3cc(Nc4cc(OC)cc(C(=O)NCCN5CCOCC5)c4)ncn3)c3ccccc23)cc1 [Example 14, 3-((6-((4-(3-(3-isopropyl-1-(4-methoxyphenyl)-1H-pyrazol-5-yl)ureido)naphthalen-1-yl)oxy)pyrimidin-4-yl)amino)-5-methoxy-N-(2-morpholinoethyl)benzamide] | < 1 | −ve (−ve and +ve indicate that the value is below and above respectively, the no significant effect threshold, defined as 30% inhibition at 1 μg/mL at the time point indicated.) | +ve (−ve and +ve indicate that the value is below and above respectively, the no significant effect threshold, defined as 30% inhibition at 1 μg/mL at the time point indicated.)
COc1ccc(C(=O)NCCN2CCOCC2)cc1Nc1nccc(Oc2ccc(NC(=O)Nc3cc(C(C)C)nn3-c3ccc(C)cc3)c3ccccc23)n1 [Example 30, 3-((4-((4-(3-(3-isopropyl-1-(p-tolyl)-1H-pyrazol-5-yl)ureido)naphthalen-1-yl)oxy)pyrimidin-2-yl)amino)-4-methoxy-N-(2-morpholinoethyl)benzamide] | 3 | −ve (−ve and +ve indicate that the value is below and above respectively, the no significant effect threshold, defined as 30% inhibition at 1 μg/mL at the time point indicated.) | −ve (−ve and +ve indicate that the value is below and above respectively, the no significant effect threshold, defined as 30% inhibition at 1 μg/mL at the time point indicated.)
Cc1ccc(-n2nc(C(C)C)cc2NC(=O)Nc2ccc(Oc3ccnc(Nc4cc(Cl)cc(C(=O)NCCN5CCOCC5)c4)n3)c3ccccc23)cc1 [Example 60, 3-chloro-5-((4-((4-(3-(3-isopropyl-1-(p-tolyl)-1H-pyrazol-5-yl)ureido)naphthalen-1-yl)oxy)pyrimidin-2-yl)amino)-N-(2-morpholinoethyl)benzamide] | 16 | −ve (−ve and +ve indicate that the value is below and above respectively, the no significant effect threshold, defined as 30% inhibition at 1 μg/mL at the time point indicated.) | −ve (−ve and +ve indicate that the value is below and above respectively, the no significant effect threshold, defined as 30% inhibition at 1 μg/mL at the time point indicated.)
Cc1csc(-n2nc(C(C)(C)C)cc2NC(=O)Nc2ccc(Oc3ccnc(Nc4cccc(C(=O)NCCN5CCOCC5)c4)n3)c3ccccc23)c1 [Example 24, 3-((4-((4-(3-(3-(tert-butyl)-1-(4-methylthiophen-2-yl)-1H-pyrazol-5-yl)ureido)naphthalen-1-yl)oxy)pyrimidin-2-yl)amino)-N-(2-morpholinoethyl)benzamide] | 11 | −ve (−ve and +ve indicate that the value is below and above respectively, the no significant effect threshold, defined as 30% inhibition at 1 μg/mL at the time point indicated.) | −ve (−ve and +ve indicate that the value is below and above respectively, the no significant effect threshold, defined as 30% inhibition at 1 μg/mL at the time point indicated.)
COc1cc(Nc2cc(Oc3ccc(NC(=O)Nc4cc(C(C)(C)C)nn4-c4ccc(C)cc4)c4ccccc34)ncn2)cc(C(=O)NCCN2CCOCC2)c1 [Example 72, 3-((6-((4-(3-(3-(tert-butyl)-1-(p-tolyl)-1H-pyrazol-5-yl)ureido)naphthalen-1-yl)oxy)pyrimidin-4-yl)amino)-5-methoxy-N-(2-morpholinoethyl)benzamide] | < 1 | −ve (−ve and +ve indicate that the value is below and above respectively, the no significant effect threshold, defined as 30% inhibition at 1 μg/mL at the time point indicated.) | −ve (−ve and +ve indicate that the value is below and above respectively, the no significant effect threshold, defined as 30% inhibition at 1 μg/mL at the time point indicated.)
COc1cc(C(=O)NCCN(C)C)ccc1Nc1nccc(Oc2ccc(NC(=O)Nc3cc(C(C)C)nn3-c3ccc(C)cc3)c3ccccc23)n1 [Example 35, N-(2-(dimethylamino)ethyl)-4-((4-((4-(3-(3-isopropyl-1-(p-tolyl)-1H-pyrazol-5-yl)ureido)naphthalen-1-yl)oxy)pyrimidin-2-yl)amino)-3-methoxybenzamide] | < 1 | −ve (−ve and +ve indicate that the value is below and above respectively, the no significant effect threshold, defined as 30% inhibition at 1 μg/mL at the time point indicated.) | −ve (−ve and +ve indicate that the value is below and above respectively, the no significant effect threshold, defined as 30% inhibition at 1 μg/mL at the time point indicated.)

Now from value to compound, other results behind:

IC50 [1] [nM] | SMILES | Cell viability at time point in d-U937 cells 4 h [2] | Cell viability at time point in d-U937 cells 24 h [2]
10 | COc1ccc(-n2nc(C(C)(C)C)cc2NC(=O)Nc2ccc(Oc3ccnc(Nc4cccc(C(=O)NCCN5CCOCC5)c4)n3)c3ccccc23)cc1 [Example 21, 3-((4-((4-(3-(3-(tert-butyl)-1-(4-methoxyphenyl)-1H-pyrazol-5-yl)ureido)naphthalen-1-yl)oxy)pyrimidin-2-yl)amino)-N-(2-morpholinoethyl)benzamide] | −ve (−ve and +ve indicate that the value is below and above respectively, the no significant effect threshold, defined as 30% inhibition at 1 μg/mL at the time point indicated.) | −ve (−ve and +ve indicate that the value is below and above respectively, the no significant effect threshold, defined as 30% inhibition at 1 μg/mL at the time point indicated.)
8 | COc1cc(Nc2nccc(Oc3ccc(NC(=O)Nc4cc(C(C)(C)C)nn4-c4ccc(C)cc4)c4ccccc34)n2)cc(C(=O)NCCO)c1 [Example 64, 3-((4-((4-(3-(3-(tert-butyl)-1-(p-tolyl)-1H-pyrazol-5-yl)ureido)naphthalen-1-yl)oxy)pyrimidin-2-yl)amino)-N-(2-hydroxyethyl)-5-methoxybenzamide] | −ve (−ve and +ve indicate that the value is below and above respectively, the no significant effect threshold, defined as 30% inhibition at 1 μg/mL at the time point indicated.) | −ve (−ve and +ve indicate that the value is below and above respectively, the no significant effect threshold, defined as 30% inhibition at 1 μg/mL at the time point indicated.)
5 | COc1ccc(-n2nc(C(C)C)cc2NC(=O)Nc2ccc(Oc3ccnc(Nc4cccc(C(=O)NCCN5CCOCC5)c4)n3)c3ccccc23)cc1 [Example 20, 3-((4-((4-(3-(3-isopropyl-1-(4-methoxyphenyl)-1H-pyrazol-5-yl)ureido)naphthalen-1-yl)oxy)pyrimidin-2-yl)amino)-N-(2-morpholinoethyl)benzamide] | −ve (−ve and +ve indicate that the value is below and above respectively, the no significant effect threshold, defined as 30% inhibition at 1 μg/mL at the time point indicated.) | −ve (−ve and +ve indicate that the value is below and above respectively, the no significant effect threshold, defined as 30% inhibition at 1 μg/mL at the time point indicated.)
4 | COc1ccc(C(=O)NCCO)cc1Nc1nccc(Oc2ccc(NC(=O)Nc3cc(C(C)(C)C)nn3-c3ccc(C)cc3)c3ccccc23)n1 [Example 33, 3-((4-((4-(3-(3-(tert-butyl)-1-(p-tolyl)-1H-pyrazol-5-yl)ureido)naphthalen-1-yl)oxy)pyrimidin-2-yl)amino)-N-(2-hydroxyethyl)-4-methoxybenzamide] | −ve (−ve and +ve indicate that the value is below and above respectively, the no significant effect threshold, defined as 30% inhibition at 1 μg/mL at the time point indicated.) | −ve (−ve and +ve indicate that the value is below and above respectively, the no significant effect threshold, defined as 30% inhibition at 1 μg/mL at the time point indicated.)
54 | CCCNC(=O)c1cccc(Nc2nccc(Oc3ccc(NC(=O)Nc4cc(C(C)(C)C)nn4-c4ccc(OC)cc4)c4ccccc34)n2)c1 [Example 17, 3-(4-(4-(3-(3-tert-butyl-1-(4-methoxyphenyl)-1H-pyrazol-5-yl)ureido)naphthalen-1-yloxy)pyrimidin-2-ylamino)-N-propylbenzamide] | −ve (−ve and +ve indicate that the value is below and above respectively, the no significant effect threshold, defined as 30% inhibition at 1 μg/mL at the time point indicated.) | −ve (−ve and +ve indicate that the value is below and above respectively, the no significant effect threshold, defined as 30% inhibition at 1 μg/mL at the time point indicated.)
12 | COc1ccc(-n2nc(C(C)(C)C)cc2NC(=O)Nc2ccc(Oc3ccnc(Nc4cc(OC)cc(C(=O)NCCN5CCOCC5)c4)n3)c3ccccc23)cc1 [Example 54, 3-((4-((4-(3-(3-(tert-butyl)-1-(4-methoxyphenyl)-1H-pyrazol-5-yl)ureido)naphthalen-1-yl)oxy)pyrimidin-2-yl)amino)-5-methoxy-N-(2-morpholinoethyl)benzamide] | −ve (−ve and +ve indicate that the value is below and above respectively, the no significant effect threshold, defined as 30% inhibition at 1 μg/mL at the time point indicated.) | −ve (−ve and +ve indicate that the value is below and above respectively, the no significant effect threshold, defined as 30% inhibition at 1 μg/mL at the time point indicated.)
